We go through 16 compounds from PubChem BioAssay (NCI).

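Method: 48-hour compound exposure of cells in 96-well plates, five concentrations, linear interpolation of endpoints. GI50 is the concentration that inhibits growth by half. TGI marks complete inhibition of growth.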

Some test systems named below: TK-10 renal; RXF 393 renal; CCRF-CEM leukemia; A549 NSCLC; LOX IMVI melanoma; NCI-H226 lung; HCC-2998 colon; OVCAR-4 ovarian; MDA-MB-231 breast; MCF7 breast.
Common to all, as to assay: NCI-60 cell line screen, 48 h

With `CCOC(=O)Cn1c2ccccc2c(=O)c2cc(C)c(C)c(C#N)c21`, the TGI in the assay with TK-10 renal, in the assay on RXF 393 renal, with CCRF-CEM leukemia, with A549 NSCLC, with LOX IMVI melanoma and in the assay with NCI-H226 lung was over 100 µM each time. In the assay with HCC-2998 colon, this compound registered a TGI of over 100 µM.

For `CCCCn1c(CSc2ccc(Cl)cc2)c(C(=O)OCC)c2cc(OC)c(Br)cc21`, the TGI in the assay with TK-10 renal, in the assay on CCRF-CEM leukemia, in the assay on A549 NSCLC, with LOX IMVI melanoma, in the assay on OVCAR-4 ovarian and in the assay with NCI-H226 lung was over 100 µM throughout. For the same compound, the TGI in the assay with HCC-2998 colon and in the assay with MDA-MB-231 breast was over 100 µM throughout.

For the compound `Cc1c(C)c(C)c(Cn2[nH]c(=O)n(C)c2=O)c(C)c1C`, the TGI with MCF7 breast, in the assay on TK-10 renal, with CCRF-CEM leukemia, in the assay with A549 NSCLC, with LOX IMVI melanoma and with NCI-H226 lung was over 100 µM in each case. Moreover, the TGI in the assay on HCC-2998 colon and with MDA-MB-231 breast was over 100 µM each time.

As for `CC(CCC[C@H](C)CO)[C@H]1[C@@H](O)C(O)C2[C@@H]3C[C@@H](O)C4(O)C[C@@H](O)CC[C@]4(C)C3CC[C@@]21C` (some centres not stated), the TGI with TK-10 renal, in the assay on RXF 393 renal, in the assay with CCRF-CEM leukemia, in the assay with A549 NSCLC, with LOX IMVI melanoma and with OVCAR-4 ovarian was over 100 µM throughout. In addition, the TGI in the assay on NCI-H226 lung and in the assay on HCC-2998 colon was over 100 µM each time.

As to `NCCSc1cc(O)c2c(c1N)C(=O)c1ccccc1C2=O`, the TGI in the assay on TK-10 renal is over 100 µM; in the assay with RXF 393 renal, 91.1 µM; in the assay on CCRF-CEM leukemia, 43.1 µM; with A549 NSCLC, over 100 µM; in the assay with OVCAR-4 ovarian, over 100 µM; in the assay on HCC-2998 colon it was over 100 µM.

For the compound `COc1ccc(/C=C/C(=O)/C=C/c2ccc(OC)cc2OC)c(OC)c1`, the TGI in the assay with TK-10 renal was determined as 47.3 µM; with RXF 393 renal, 37.1 µM; with CCRF-CEM leukemia it was 13.5 µM; in the assay with A549 NSCLC it was 46.3 µM; in the assay on LOX IMVI melanoma, 18.1 µM; with OVCAR-4 ovarian, 46.3 µM. Also, the TGI with NCI-H226 lung turned out to be 37.6 µM; in the assay on HCC-2998 colon, 13.3 µM; with MDA-MB-231 breast, 78.5 µM.

As for `COC(=O)c1c(C(=O)OC)c2ccccn2c1-c1cc(OC)c(Br)c(=O)o1`, the TGI in the assay on TK-10 renal, in the assay on RXF 393 renal, in the assay with CCRF-CEM leukemia, with A549 NSCLC, in the assay on LOX IMVI melanoma and in the assay with OVCAR-4 ovarian was over 100 µM each time. The TGI with NCI-H226 lung, in the assay on HCC-2998 colon and in the assay with MDA-MB-231 breast was over 100 µM each time.

For the compound `Nc1ccc2[nH]c(-c3cccc(C(F)(F)F)c3)cc(=O)c2c1`, the TGI in the assay with MCF7 breast is over 100 µM; in the assay on TK-10 renal it was over 100 µM; in the assay on CCRF-CEM leukemia, 59.9 µM; with A549 NSCLC, over 100 µM; in the assay with LOX IMVI melanoma, over 100 µM; in the assay with OVCAR-4 ovarian, over 100 µM. Further, the TGI in the assay on HCC-2998 colon and in the assay with MDA-MB-231 breast was over 100 µM each time. Moreover, in the assay on OVCAR-4 ovarian, the GI50 is 62.9 µM.

In the case of `COc1c(C)cc2c(C(C)C)c(O)c(O)c(C=O)c2c1O`, the TGI was over 100 µM in the assay on TK-10 renal; 55.2 µM with RXF 393 renal; over 100 µM in the assay with CCRF-CEM leukemia; over 100 µM in the assay with A549 NSCLC; 68.9 µM with LOX IMVI melanoma; 63.9 µM in the assay on OVCAR-4 ovarian. Further, the TGI is 57.2 µM in the assay with NCI-H226 lung and over 100 µM with HCC-2998 colon.

Turning to `C1CSCCSCCCSC2CCCCC2SC1` (configuration not stated), the TGI with MCF7 breast, in the assay with TK-10 renal, in the assay with CCRF-CEM leukemia, in the assay on A549 NSCLC, with LOX IMVI melanoma and with OVCAR-4 ovarian was over 100 µM each time. Further, the TGI with HCC-2998 colon and with MDA-MB-231 breast was over 100 µM each time.

As to `Clc1cccc(-c2sc(-c3ccsc3)cc2Cc2ccsc2)c1`, the TGI in the assay with MCF7 breast, with TK-10 renal, in the assay on RXF 393 renal, in the assay with CCRF-CEM leukemia, with A549 NSCLC and with LOX IMVI melanoma was over 10 µM each time. The TGI with OVCAR-4 ovarian, in the assay on HCC-2998 colon and with MDA-MB-231 breast was over 10 µM throughout.

`COC(=O)C1CCN(C(=O)OC(C)(C)C)CC1`: the TGI in the assay with MCF7 breast, in the assay with TK-10 renal, in the assay on CCRF-CEM leukemia, with A549 NSCLC, with LOX IMVI melanoma and in the assay on OVCAR-4 ovarian was over 100 µM each time. Also, the TGI in the assay with HCC-2998 colon and in the assay on MDA-MB-231 breast was over 100 µM in each case.

As for `S=C(NCCc1ccccn1)N/N=C/c1ccccn1`, the TGI is over 100 µM with TK-10 renal; 12.2 µM in the assay with RXF 393 renal; under 0.01 µM in the assay with CCRF-CEM leukemia; 7.68 µM in the assay with A549 NSCLC; 22.5 µM in the assay with LOX IMVI melanoma; over 74.7 µM with OVCAR-4 ovarian. The results for the TGI in the assay with NCI-H226 lung and in the assay with HCC-2998 colon were 0.986 µM and over 100 µM, respectively.

For `COc1cc(OC)cc(-c2ccc(-c3ccc(C(=N)N)cn3)o2)c1`, the GI50 in the assay on TK-10 renal was 1.79 µM; with CCRF-CEM leukemia it was 2.06 µM; with A549 NSCLC it was 1.86 µM; with OVCAR-4 ovarian, 1.74 µM. Also, the TGI in the assay on TK-10 renal is 3.26 µM; in the assay on CCRF-CEM leukemia it was 4.6 µM; with A549 NSCLC it was 3.52 µM; with OVCAR-4 ovarian it was 3.46 µM.

In the case of `N#CCc1c(-c2ccccc2)n(S(=O)(=O)c2ccccc2)c2ccccc12`, the TGI in the assay with TK-10 renal, in the assay with CCRF-CEM leukemia, with A549 NSCLC, with OVCAR-4 ovarian, in the assay with NCI-H226 lung and with HCC-2998 colon was over 100 µM throughout.

For the compound `COC(=O)c1cc(C(=O)OC)c(CC(=O)C(=O)NC2C3CC4CC(C3)CC2C4)nc1CC(=O)C(=O)NC1C2CC3CC(C2)CC1C3` (configuration not stated), the TGI in the assay on TK-10 renal, with RXF 393 renal, in the assay on CCRF-CEM leukemia, in the assay with A549 NSCLC, with LOX IMVI melanoma and in the assay with OVCAR-4 ovarian was over 100 µM in each case. Moreover, the TGI with NCI-H226 lung and in the assay with HCC-2998 colon was over 100 µM each time.
